These results are taken from patent US12503436B2, “Compounds and compositions for treating conditions associated with STING activity” (NOVARTIS PHARMA AG, priority 2021, dated 2025).

Molecules are shown by their SMILES.

A word on the EC50: it is the midpoint of the concentration-response curve.

Chain of STING (Q86WV6 whole entry R71H/G230A/H232R/R293Q): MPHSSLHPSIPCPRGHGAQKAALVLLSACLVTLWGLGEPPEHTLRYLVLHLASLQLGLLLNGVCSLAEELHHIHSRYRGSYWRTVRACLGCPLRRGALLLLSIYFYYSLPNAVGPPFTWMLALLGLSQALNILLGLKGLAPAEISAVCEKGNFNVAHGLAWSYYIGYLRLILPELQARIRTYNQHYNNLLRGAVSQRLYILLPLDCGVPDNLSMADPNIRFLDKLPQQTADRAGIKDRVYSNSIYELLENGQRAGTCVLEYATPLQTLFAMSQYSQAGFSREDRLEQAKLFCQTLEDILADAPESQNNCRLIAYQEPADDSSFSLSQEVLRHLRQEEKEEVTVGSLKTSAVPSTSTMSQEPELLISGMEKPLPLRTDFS

The assay concerns the target STING (Homo sapiens, UniProt Q86WV6, G230A/H232R/R293Q/R71H). The assay can be described thus: STING reporter assay in THP1-Dual KO-IFNAR2 cells (2′3′cGAMP stimulation, luciferase reporter). Type of assay: cell-based. Particulars: 15 μM 2′3′cGAMP stimulation, 24 h, read-out: Pharmaron, THP1_IFNAR2 STING 24 h Luci Normalized: GeoMean EC50. The method, boiled down: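 EC50 from secreted luciferase (QUANTI-Luc Plus luminescence of supernatant) after 24 h at 37 °C, 5% CO2. Cells: THP1-Dual KO-IFNAR2, treated with compound (0.0017-100 μM final) plus lipofected 2′3′cGAMP at 15 μM final.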
A general note: A reporter such as luciferase makes a cellular process visible.
As for `CC(=O)Nc1c[nH]c2ccc(CC(C)Oc3ccc(C(F)(F)F)cc3)cc12` (stereo not shown) [Compound 287, N-(5-(2-(4-(trifluoromethyl)phenoxy)propyl)-1H-indol-3-yl)acetamide], the EC50 was in the range of 1000 to 5000 nM.
Take `O=C(Nc1c[nH]c2ccc(OCCc3ccc(C(F)(F)F)cc3)cc12)C1CC(F)C1` (stereo not shown) [Compound 207, 3-fluoro-N-(5-(4-(trifluoromethyl)phenethoxy)-1H-indol-3-yl)cyclobutane-1-carboxamide]: the half-maximal effective concentration (EC50) lay in the range of 40 to 200 nM.
To `C[C@]1(C(=O)Nc2c[nH]c3ccc(OCc4ccc(C(F)(F)F)cc4)cc23)CC[C@H](O)CC1` [Compound 418, trans-4-hydroxy-1-methyl-N-(5-((4-(trifluoromethyl)benzyl)oxy)-1H-indol-3-yl)cyclohexane-1-carboxamide] belongs 200 to 1000 nM; to `CC1(C(=O)Nc2c[nH]c3ccc(OCCc4ccc(C(F)(F)F)cc4)cc23)CCCO1` (stereo not shown) [Compound 191, 2-methyl-N-(5-(4-(trifluoromethyl)phenethoxy)-1H-indol-3-yl)tetrahydrofuran-2-carboxamide], 200 to 1000 nM; to `O=C(Nc1c[nH]c2ccc(CC(O)Cc3ccc(C(F)(F)F)cc3)cc12)C1CC1` (single isomer, unassigned) [Compound 201, N-(5-(2-hydroxy-3-(4-(trifluoromethyl)phenyl)propyl)-1H-indol-3-yl)cyclopropanecarboxamide], 200 to 1000 nM.
Turning to `O=C(Nc1c[nH]c2ccc(CCOc3ccc(C(F)(F)F)cc3)cc12)C1CN(CC(F)(F)F)C1` [Compound 219, 1-(2,2,2-trifluoroethyl)-N-(5-(2-(4-(trifluoromethyl)phenoxy)ethyl)-1H-indol-3-yl)azetidine-3-carboxamide], the EC50 lay within 40 to 200 nM.
For `CC(=O)Nc1c[nH]c2ccc(OCC3CCN(CC(F)(F)F)CC3)cc12` [Compound 119, N-(5-((1-(2,2,2-trifluoroethy|)piperidin-4-yl)methoxy)-1H-indol-3-yl)acetamide], the EC50 was in the range of 5000 to 100000 nM.
For the compound `CC(=O)Nc1c[nH]c2c(Br)cc(CCOc3ccc(C(F)(F)F)cc3)cc12` [Compound 578, N-(7-bromo-5-(2-(4-(trifluoromethyl)phenoxy)ethyl)-1H-indol-3-yl)acetamide], the 50% effective concentration (EC50) fell in the range of 1000 to 5000 nM.
For `C[C@H]1OC[C@H]1C(=O)Nc1c[nH]c2ccc(OCC[C@@H]3C[C@@H]4CN(CC(F)(F)F)C[C@@H]4C3)cc12` [Compound 510, (2R,3R)-2-methyl-N-(5-(2-((3aR,5r,6aS)-2-(2,2,2-trifluoroethyl)octahydrocyclopenta[c]pyrrol-5-yl)ethoxy)-1H-indol-3-yl)oxetane-3-carboxamide] the value was 200 to 1000 nM; for `CC(=O)Nc1c[nH]c2ccc(CCOc3ccc4ccncc4c3)cc12` [Compound 449, N-{5-[2-(isoquinolin-7-yloxy)ethyl]-1H-indol-3-yl}acetamide], 1000 to 5000 nM.
Regarding `CC(=O)Nc1c[nH]c2ccc(OCCc3cnc(N4CCC(F)(F)CC4)c(F)c3)cc12` [Compound 254, N-(5-(2-(6-(4,4-difluoropiperidin-1-yl)-5-fluoropyridin-3-yl)ethoxy)-1H-indol-3-yl)acetamide], the EC50 was 40 to 200 nM.
Take `CC(=O)N[C@H]1C[C@](C)(C(=O)Nc2c[nH]c3ccc(O[C@H]4C[C@@H](c5ccc(C(F)(F)F)cc5)C4)cc23)C1` [Compound 413, trans-3-acetamido-1-methyl-N-(5-(cis-3-(4-(trifluoromethyl)phenyl)cyclobutoxy)-1H-indol-3-yl)cyclobutane-1-carboxamide]: the 50% effective concentration (EC50) lay in the range of 1000 to 5000 nM.
With `CC(=O)Nc1c[nH]c2ccc(CCOc3cnc4cccc(Cl)c4c3)cc12` [Compound 560, N-(5-(2-((5-chloroquinolin-3-yl)oxy)ethyl)-1H-indol-3-yl)acetamide], the concentration giving a half-maximal response (EC50) was 1000 to 5000 nM.
To `CC1(C(=O)Nc2c[nH]c3ccc(CCOc4ccc(C(F)(F)F)cc4)cc23)COC1` [Compound 165, 3-methyl-N-(5-(2-(4-(trifluoromethyl)phenoxy)ethyl)-1H-indol-3-yl)oxetane-3-carboxamide] belongs 40 to 200 nM; to `CC1(C(=O)Nc2c[nH]c3ccc(OCc4ccc(C(F)(F)F)cc4)cc23)CC1` [Compound 301, 1-methyl-N-(5-((4-(trifluoromethyl)benzyl)oxy)-1H-indol-3-yl)cyclopropane-1-carboxamide], 200 to 1000 nM.
To `N#C[C@H]1C[C@@H]1C(=O)Nc1c[nH]c2ccc(CCOc3ccc(C(F)(F)F)cc3)cc12` [Compound 391, (1S,2S)-2-cyano-N-(5-(2-(4-(trifluoromethyl)phenoxy)ethyl)-1H-indol-3-yl)cyclopropane-1-carboxamide] belongs 40 to 200 nM; to `CC(=O)Nc1c[nH]c2ccc(CCOc3ccc(C4CCC(F)(F)CC4)cc3)cc12` [Compound 224, N-(5-(2-(4-(4,4-difluorocyclohexyl)phenoxy)ethyl)-1H-indol-3-yl)acetamide], 40 to 200 nM.
For `CC1(C)CC1C(=O)Nc1c[nH]c2ccc(OCCc3ccc(C(F)(F)F)cc3)cc12` (stereo not shown) [Compound 192, 2,2-dimethyl-N-(5-(4-(trifluoromethyl)phenethoxy)-1H-indol-3-yl)cyclopropane-1-carboxamide] the value was 40 to 200 nM; for `CC(=O)Nc1c[nH]c2ccc(OCCc3cnc(N4CCN(CC(F)(F)F)CC4)c(F)c3)cc12` [Compound 253, N-(5-(2-(5-fluoro-6-(4-(2,2,2-trifluoroethyl)piperazin-1-yl)pyridin-3-yl)ethoxy)-1H-indol-3-yl)acetamide], 1000 to 5000 nM; for `CC(=O)Nc1c[nH]c2ccc(COc3ccc(C(F)(F)F)cc3)cc12` [Compound 115, N-(5-((4-(trifluoromethyl)phenoxy)methyl)-1H-indol-3-yl)acetamide], 40 to 200 nM.
As to `O=C(Nc1c[nH]c2ccc(O[C@H]3C[C@H](c4ccc(C(F)(F)F)nc4)C3)cc12)[C@H]1C[C@H](CO)C1` [Compound 553, trans-3-(hydroxymethyl)-N-(5-(trans-3-(6-(trifluoromethyl)pyridin-3-yl)cyclobutoxy)-1H-indol-3-yl)cyclobutane-1-carboxamide], the 50% effective concentration (EC50) lay in the range of 200 to 1000 nM.
To `C[C@]1(C(=O)Nc2c[nH]c3ccc(OCCc4ccc(C(F)(F)F)cc4)cc23)C[C@@H](CO)C1` [Compound 531, cis-3-(hydroxymethyl)-1-methyl-N-(5-(4-(trifluoromethyl)phenethoxy)-1H-indol-3-yl)cyclobutane-1-carboxamide] belongs 40 to 200 nM; to `O=C(Nc1c[nH]c2ccc(O[C@H]3C[C@@H](c4ccc(C(F)(F)F)nc4)C3)cc12)[C@H]1C[C@@H](CO)C1` [Compound 550, cis-3-(hydroxymethyl)-N-(5-(cis-3-(6-(trifluoromethyl)pyridin-3-yl)cyclobutoxy)-1H-indol-3-yl)cyclobutane-1-carboxamide], 200 to 1000 nM.
For `CC(=O)Nc1c[nH]c2ccc(CCOc3ccc(C4CC(F)(F)C4)cc3)cc12` [Compound 225, N-(5-(2-(4-(3,3-difluorocyclobutyl)phenoxy)ethyl)-1H-indol-3-yl)acetamide], the 50% effective concentration (EC50) was in the range of 40 to 200 nM.
For `N#CC1CCC1C(=O)Nc1c[nH]c2ccc(O[C@H]3C[C@H](c4ccc(C(F)(F)F)cc4)C3)cc12` (stereo partly drawn) [Compound 467, 2-cyano-N-{5-[(1R,3R)-3-[4-(trifluoromethyl)phenyl]cyclobutoxy]-1H-indol-3-yl}cyclobutane-1-carboxamide] the value was 200 to 1000 nM; for `CC1(C(=O)Nc2c[nH]c3ccc(OCCc4ccc(C(F)(F)F)nc4)cc23)COC1` [Compound 372, 3-methyl-N-(5-(2-(6-(trifluoromethyl)pyridin-3-yl)ethoxy)-1H-indol-3-yl)oxetane-3-carboxamide], 1000 to 5000 nM; for `CC(=O)Nc1c[nH]c2ccc(OCC3CCC(C(F)(F)F)CC3)cc12` (stereo not shown) [Compound 472, N-(5-((4-(trifluoromethyl)cyclohexyl)methoxy)-1H-indol-3-yl)acetamide], 200 to 1000 nM.
For `CCC(=O)Nc1c[nH]c2ccc(COc3ccc(C)cc3)cc12` [Compound 291, N-(5-((p-tolyloxy)methyl)-1H-indol-3-yl)propionamide] the value was 200 to 1000 nM.
As to `O=C(Nc1c[nH]c2ccc(OCc3ccc(C(F)(F)F)cc3)cc12)C1COC1` [Compound 381, N-(5-((4-(trifluoromethyl)benzyl)oxy)-1H-indol-3-yl)oxetane-3-carboxamide], the 50% effective concentration (EC50) lay within 200 to 1000 nM.
As for `O=C(Nc1c[nH]c2ccc(OCc3ccc(C(F)(F)F)cc3)cc12)C1CC(F)C1` (stereo not shown) [Compound 326, 3-fluoro-N-(5-((4-(trifluoromethyl)benzyl)oxy)-1H-indol-3-yl)cyclobutane-1-carboxamide], the EC50 fell in the range of 200 to 1000 nM.
As to `O=C(Nc1c[nH]c2ccc(OCCc3ccc(C(F)(F)F)cc3)cc12)C1CC1(F)Cl` (stereo not shown) [Compound 216, 2-chloro-2-fluoro-N-(5-(4-(trifluoromethyl)phenethoxy)-1H-indol-3-yl)cyclopropane-1-carboxamide], the EC50 lay in the range of 200 to 1000 nM.
In the case of `COCCC(=O)Nc1c[nH]c2ccc(O[C@H]3C[C@H](c4ccc(C(F)(F)F)cc4)C3)cc12` [Compound 241, 3-methoxy-N-(5-((1r,3r)-3-(4-(trifluoromethyl)phenyl)cyclobutoxy)-1H-indol-3-yl)propanamide], the EC50 is 40 to 200 nM.
As for `CC(=O)Nc1c[nH]c2ccc(OCC[C@H]3CC[C@H](C(F)(F)F)CC3)cc12` (single isomer, unassigned) [Compound 456, N-(5-(2-(trans-4-(trifluoromethyl)cyclohexyl)ethoxy)-1H-indol-3-yl)acetamide], the 50% effective concentration (EC50) lay in the range of 200 to 1000 nM.
`CC(=O)Nc1c[nH]c2ccc(O[C@H]3C[C@@H](c4ccc(C(F)(F)F)cc4)C3)cc12` [Compound 102, N-(5-(cis-3-(4-(trifluoromethyl)phenyl)cyclobutoxy)-1H-indol-3-yl)acetamide]: the EC50 fell in the range of 40 to 200 nM.
